Laboratory results reported in paper PMC6409085, “Three odorant-binding proteins are involved in the behavioral response of Sogatella furcifera to rice plant volatiles” (PeerJ, 2019).
Where “and” joins values, the source holds several entries; their conditions need not be identical. Equal entries are not always repeated.

What was measured:
SfurOBP2 = SfurOBP2 (Sogatella furcifera, UniProt V5T759); test: biochemical; type: binding
Summary of the method: (§1)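 Fluorescence competitive binding with 1-NPN as reporter: 2.0 µM protein and 2.0 µM 1-NPN in 50 mM Tris-HCl pH 7.4, odorant added at 2–20 µM final. Excitation 337 nm, emission 390–490 nm read 2 min after addition, triplicates. Ki = IC50/(1 + [1-NPN]/K1-NPN).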

SfurOBP11 = SfurOBP11 (Sogatella furcifera, UniProt V5T6E3); test: biochemical; type: binding
Summary of the method: as §1

SfurOBP3 = SfurOBP3 (Sogatella furcifera, UniProt V5T818); test: biochemical; type: binding; details: for Fluorescence competitive binding assay, fluorescence intensity: OBP3, three replicate columns
Summary of the method: as §1

SfurOBP1 = SfurOBP1 (Sogatella furcifera, UniProt V5T8N5); test: biochemical; type: binding; details: for Fluorescence competitive binding assay, fluorescence intensity: OBP1, three replicate columns
Summary of the method: as §1

S. furcifera adults = test: Y-tube olfactometer behavioral trials; type: in vivo, Sogatella furcifera; details: odorant 50 µL/L vs hexane; adults
Summary of the method: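 Single S. furcifera adults (2 days post-emergence, starved 0.5 h) chose between odorant (100 µL of 50 µL/L on filter paper) and hexane control in a glass Y-tube, charcoal-filtered humidified air 300 mL/min per arm, 25 ± 1 °C, 50% RH. Choice scored if insect passed half an arm and stayed >1 min within 10 min; 45 insects per compound, chi-squared test.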

Chain of SfurOBP2 (V5T759 entry or part of it): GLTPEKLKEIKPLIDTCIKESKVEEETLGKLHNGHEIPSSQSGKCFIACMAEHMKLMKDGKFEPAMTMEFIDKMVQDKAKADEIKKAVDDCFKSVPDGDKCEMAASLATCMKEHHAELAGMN
Chain of SfurOBP3 (V5T818 entry or part of it): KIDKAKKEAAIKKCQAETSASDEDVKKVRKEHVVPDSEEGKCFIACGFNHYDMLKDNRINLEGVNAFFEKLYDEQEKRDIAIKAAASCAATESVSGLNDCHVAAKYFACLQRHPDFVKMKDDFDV
Chain of SfurOBP11 (V5T6E3 entry or part of it): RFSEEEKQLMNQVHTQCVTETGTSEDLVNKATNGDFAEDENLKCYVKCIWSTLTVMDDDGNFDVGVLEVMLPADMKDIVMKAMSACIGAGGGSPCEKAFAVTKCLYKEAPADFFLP
Chain of SfurOBP1 (V5T8N5 entry or part of it): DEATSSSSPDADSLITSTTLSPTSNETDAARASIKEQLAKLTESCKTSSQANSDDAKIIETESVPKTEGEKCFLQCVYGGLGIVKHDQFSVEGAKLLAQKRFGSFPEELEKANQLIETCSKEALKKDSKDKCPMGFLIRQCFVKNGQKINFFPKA

IC50 (SfurOBP2; SfurOBP2, protein and 1-NPN both 2.0 µM, competitor 2-20 µM, read-out: IC50): > 20 µM
Fluorescence competitive binding assay, OBP2 (raw fluorescence reading) (SfurOBP2; ligand concentration 2 (unit not given), replicate column 1 of 3): 22495
Fluorescence competitive binding assay, OBP2 (raw fluorescence reading) (SfurOBP2; ligand concentration 2 (unit not given), replicate column 2 of 3): 22840
Fluorescence competitive binding assay, OBP2 (raw fluorescence reading) (SfurOBP2; ligand concentration 2 (unit not given), replicate column 3 of 3): 21233
Fluorescence competitive binding assay, OBP2 (raw fluorescence reading) (SfurOBP2; ligand concentration 4 (unit not given), replicate column 1 of 3): 23391
Fluorescence competitive binding assay, OBP2 (raw fluorescence reading) (SfurOBP2; ligand concentration 4 (unit not given), replicate column 2 of 3): 22604
Fluorescence competitive binding assay, OBP2 (raw fluorescence reading) (SfurOBP2; ligand concentration 4 (unit not given), replicate column 3 of 3): 23347
Fluorescence competitive binding assay, OBP2 (raw fluorescence reading) (SfurOBP2; ligand concentration 6 (unit not given), replicate column 1 of 3): 22973
Fluorescence competitive binding assay, OBP2 (raw fluorescence reading) (SfurOBP2; ligand concentration 6 (unit not given), replicate column 2 of 3): 22972
Fluorescence competitive binding assay, OBP2 (raw fluorescence reading) (SfurOBP2; ligand concentration 6 (unit not given), replicate column 3 of 3): 22119
Fluorescence competitive binding assay, OBP2 (raw fluorescence reading) (SfurOBP2; ligand concentration 8 (unit not given), replicate column 1 of 3): 20829
Fluorescence competitive binding assay, OBP2 (raw fluorescence reading) (SfurOBP2; ligand concentration 8 (unit not given), replicate column 2 of 3): 21110
Fluorescence competitive binding assay, OBP2 (raw fluorescence reading) (SfurOBP2; ligand concentration 8 (unit not given), replicate column 3 of 3): 19166
Fluorescence competitive binding assay, OBP2 (raw fluorescence reading) (SfurOBP2; ligand concentration 10 (unit not given), replicate column 1 of 3): 18739
Fluorescence competitive binding assay, OBP2 (raw fluorescence reading) (SfurOBP2; ligand concentration 10 (unit not given), replicate column 2 of 3): 19572
Fluorescence competitive binding assay, OBP2 (raw fluorescence reading) (SfurOBP2; ligand concentration 10 (unit not given), replicate column 3 of 3): 20059
Fluorescence competitive binding assay, OBP2 (raw fluorescence reading) (SfurOBP2; ligand concentration 12 (unit not given), replicate column 1 of 3): 18220
Fluorescence competitive binding assay, OBP2 (raw fluorescence reading) (SfurOBP2; ligand concentration 12 (unit not given), replicate column 2 of 3): 17338
Fluorescence competitive binding assay, OBP2 (raw fluorescence reading) (SfurOBP2; ligand concentration 12 (unit not given), replicate column 3 of 3): 19313
Fluorescence competitive binding assay, OBP2 (raw fluorescence reading) (SfurOBP2; ligand concentration 14 (unit not given), replicate column 1 of 3): 18807
Fluorescence competitive binding assay, OBP2 (raw fluorescence reading) (SfurOBP2; ligand concentration 14 (unit not given), replicate column 2 of 3): 18093
Fluorescence competitive binding assay, OBP2 (raw fluorescence reading) (SfurOBP2; ligand concentration 14 (unit not given), replicate column 3 of 3): 18015
Fluorescence competitive binding assay, OBP2 (raw fluorescence reading) (SfurOBP2; ligand concentration 16 (unit not given), replicate column 1 of 3): 15898
Fluorescence competitive binding assay, OBP2 (raw fluorescence reading) (SfurOBP2; ligand concentration 16 (unit not given), replicate column 2 of 3): 17144
Fluorescence competitive binding assay, OBP2 (raw fluorescence reading) (SfurOBP2; ligand concentration 16 (unit not given), replicate column 3 of 3): 15877
Fluorescence competitive binding assay, OBP2 (raw fluorescence reading) (SfurOBP2; ligand concentration 18 (unit not given), replicate column 1 of 3): 16375
Fluorescence competitive binding assay, OBP2 (raw fluorescence reading) (SfurOBP2; ligand concentration 18 (unit not given), replicate column 2 of 3): 13674
Fluorescence competitive binding assay, OBP2 (raw fluorescence reading) (SfurOBP2; ligand concentration 18 (unit not given), replicate column 3 of 3): 18894
Fluorescence competitive binding assay, OBP2 (raw fluorescence reading) (SfurOBP2; ligand concentration 20 (unit not given), replicate column 1 of 3): 16296
Fluorescence competitive binding assay, OBP2 (raw fluorescence reading) (SfurOBP2; ligand concentration 20 (unit not given), replicate column 2 of 3): 16765
Fluorescence competitive binding assay, OBP2 (raw fluorescence reading) (SfurOBP2; ligand concentration 20 (unit not given), replicate column 3 of 3): 17962
IC50 (SfurOBP11; SfurOBP11, protein and 1-NPN both 2.0 µM, competitor 2-20 µM, read-out: IC50): > 20 µM
Fluorescence intensity, fluorescence competitive binding assay, OBP11 (SfurOBP11; ligand concentration 2, replicate 1): 31191
Fluorescence intensity, fluorescence competitive binding assay, OBP11 (SfurOBP11; ligand concentration 2, replicate 2): 27026
Fluorescence intensity, fluorescence competitive binding assay, OBP11 (SfurOBP11; ligand concentration 2, replicate 3): 27251
Fluorescence intensity, fluorescence competitive binding assay, OBP11 (SfurOBP11; ligand concentration 4, replicate 1): 33062
Fluorescence intensity, fluorescence competitive binding assay, OBP11 (SfurOBP11; ligand concentration 4, replicate 2): 32235
Fluorescence intensity, fluorescence competitive binding assay, OBP11 (SfurOBP11; ligand concentration 4, replicate 3): 30749
Fluorescence intensity, fluorescence competitive binding assay, OBP11 (SfurOBP11; ligand concentration 6, replicate 1): 33680
Fluorescence intensity, fluorescence competitive binding assay, OBP11 (SfurOBP11; ligand concentration 6, replicate 2): 31560
Fluorescence intensity, fluorescence competitive binding assay, OBP11 (SfurOBP11; ligand concentration 6, replicate 3): 31826
Fluorescence intensity, fluorescence competitive binding assay, OBP11 (SfurOBP11; ligand concentration 8, replicate 1): 29344
Fluorescence intensity, fluorescence competitive binding assay, OBP11 (SfurOBP11; ligand concentration 8, replicate 2): 31482
Fluorescence intensity, fluorescence competitive binding assay, OBP11 (SfurOBP11; ligand concentration 8, replicate 3): 30513
Fluorescence intensity, fluorescence competitive binding assay, OBP11 (SfurOBP11; ligand concentration 10, replicate 1): 29393
Fluorescence intensity, fluorescence competitive binding assay, OBP11 (SfurOBP11; ligand concentration 10, replicate 2): 28581
Fluorescence intensity, fluorescence competitive binding assay, OBP11 (SfurOBP11; ligand concentration 10, replicate 3): 27079
Fluorescence intensity, fluorescence competitive binding assay, OBP11 (SfurOBP11; ligand concentration 12, replicate 1): 26945
Fluorescence intensity, fluorescence competitive binding assay, OBP11 (SfurOBP11; ligand concentration 12, replicate 2): 26618
Fluorescence intensity, fluorescence competitive binding assay, OBP11 (SfurOBP11; ligand concentration 12, replicate 3): 27193
Fluorescence intensity, fluorescence competitive binding assay, OBP11 (SfurOBP11; ligand concentration 14, replicate 1): 24856
Fluorescence intensity, fluorescence competitive binding assay, OBP11 (SfurOBP11; ligand concentration 14, replicate 2): 26161
Fluorescence intensity, fluorescence competitive binding assay, OBP11 (SfurOBP11; ligand concentration 14, replicate 3): 27383
Fluorescence intensity, fluorescence competitive binding assay, OBP11 (SfurOBP11; ligand concentration 16, replicate 1): 23278
Fluorescence intensity, fluorescence competitive binding assay, OBP11 (SfurOBP11; ligand concentration 16, replicate 2): 23147
Fluorescence intensity, fluorescence competitive binding assay, OBP11 (SfurOBP11; ligand concentration 16, replicate 3): 23455
Fluorescence intensity, fluorescence competitive binding assay, OBP11 (SfurOBP11; ligand concentration 18, replicate 1): 27255
Fluorescence intensity, fluorescence competitive binding assay, OBP11 (SfurOBP11; ligand concentration 18, replicate 2): 25416
Fluorescence intensity, fluorescence competitive binding assay, OBP11 (SfurOBP11; ligand concentration 18, replicate 3): 25774
Fluorescence intensity, fluorescence competitive binding assay, OBP11 (SfurOBP11; ligand concentration 20, replicate 1): 25007
Fluorescence intensity, fluorescence competitive binding assay, OBP11 (SfurOBP11; ligand concentration 20, replicate 2): 22862
Fluorescence intensity, fluorescence competitive binding assay, OBP11 (SfurOBP11; ligand concentration 20, replicate 3): 22028
Fluorescence competitive binding assay, fluorescence intensity (SfurOBP3; ligand concentration 2): 61166 and 61638 and 64447
Fluorescence competitive binding assay, fluorescence intensity (SfurOBP3; ligand concentration 4): 63416 and 64552 and 59405
Fluorescence competitive binding assay, fluorescence intensity (SfurOBP3; ligand concentration 6): 55740 and 58561 and 59455
Fluorescence competitive binding assay, fluorescence intensity (SfurOBP3; ligand concentration 8): 58358 and 53959 and 58376
Fluorescence competitive binding assay, fluorescence intensity (SfurOBP3; ligand concentration 10): 51490 and 57535 and 53641
Fluorescence competitive binding assay, fluorescence intensity (SfurOBP3; ligand concentration 12): 51816 and 53317 and 52476
Fluorescence competitive binding assay, fluorescence intensity (SfurOBP3; ligand concentration 14): 50240 and 49815 and 48142
Fluorescence competitive binding assay, fluorescence intensity (SfurOBP3; ligand concentration 16): 46199 and 48600 and 42686
Fluorescence competitive binding assay, fluorescence intensity (SfurOBP3; ligand concentration 18): 47759 and 45050 and 48665
Fluorescence competitive binding assay, fluorescence intensity (SfurOBP3; ligand concentration 20): 47298 and 41425 and 41649
IC50 (SfurOBP3; SfurOBP3, protein and 1-NPN both 2.0 µM, competitor 2-20 µM, read-out: IC50): > 20 µM
Fluorescence competitive binding assay, fluorescence intensity (SfurOBP1; ligand concentration 2 (μM)): 7802 and 7217 and 8367
Fluorescence competitive binding assay, fluorescence intensity (SfurOBP1; ligand concentration 4 (μM)): 10256 and 8383 and 7448
Fluorescence competitive binding assay, fluorescence intensity (SfurOBP1; ligand concentration 6 (μM)): 7755 and 7709 and 7657
Fluorescence competitive binding assay, fluorescence intensity (SfurOBP1; ligand concentration 8 (μM)): 8353 and 6725 and 6896
Fluorescence competitive binding assay, fluorescence intensity (SfurOBP1; ligand concentration 10 (μM)): 7309 and 7612 and 6541
Fluorescence competitive binding assay, fluorescence intensity (SfurOBP1; ligand concentration 12 (μM)): 7182 and 6932 and 8389
Fluorescence competitive binding assay, fluorescence intensity (SfurOBP1; ligand concentration 14 (μM)): 7695 and 6348 and 8106
Fluorescence competitive binding assay, fluorescence intensity (SfurOBP1; ligand concentration 16 (μM)): 7645 and 7087 and 7719
Fluorescence competitive binding assay, fluorescence intensity (SfurOBP1; ligand concentration 18 (μM)): 9286 and 8583 and 8604
Fluorescence competitive binding assay, fluorescence intensity (SfurOBP1; ligand concentration 20 (μM)): 13401 and 7898 and 7495
IC50 (SfurOBP1; SfurOBP1, protein and 1-NPN both 2.0 µM, competitor 2-20 µM, read-out: IC50): > 20 µM
SMILES: CCCCCCCCC=O [nonanal]
number of insects choosing hexane arm (S. furcifera adults): 12
number of insects choosing volatilies arm (S. furcifera adults): 17
number of insects failed (no choice) (S. furcifera adults): 11
